Test results from patent publication US8017606B2, “Quinoline derivatives as antibacterial agents” (Janssen Pharmaceutica NV, priority 2005, dated 2011).
≈ marks a conversion by molar mass, not a printed value.

How the values were obtained:
Assay in all cases: Microtitre plate assay, IC90 determination
Type in all cases: cell-based
[1] = system: Enterococcus faecalis (ATCC29212); settings: 90% inhibitory concentration for bacterial growth, 37° C., resazurin fluorescence, read-out: IC90 (μg/ml) EFA 29212
Protocol: (§1) The bacteria used in this study were grown overnight in flasks containing 100 ml Mueller-Hinton Broth (Becton Dickinson—cat. no. 275730) in sterile de-ionized water, with shaking, at 37° C. Stocks (0.5 ml/tube) were stored at −70° C. until use. Bacteria titrations were performed in microtiter plates and colony forming units (CFUs) were determined. In general, an inoculum level of approximately 100 CFUs was used for susceptibility testing.
(§2) Anti Bacterial Susceptibility Testing: IC90 Determination
(§3) Flat-bottom, sterile 96-well plastic microtiter plates were filled with 180 μl of sterile deionized water, supplemented with 0.25% BSA. Subsequently, stock solutions (7.8×final test concentration) of compounds were added in 45 μl volumes in column 2 Serial five-fold dilutions (45 μl in 180 μl) were made directly in the microtiter plates from column 2 to reach column 11. Untreated control samples with (column 1) and without (column 12) inoculum were included in each microtiter plate. Depending on the bacteria type, approximately 10 to 60 CFU per well of bacteria inoculum (100 TCID50), in a volume of 100 μl in 2.8× Mueller-Hinton broth medium, was added to the rows A to H, except column 12. The same volume of broth medium without inoculum was added to column 12 in row A to H. The cultures were incubated at 37° C. for 24 hours under a normal atmosphere (incubator with open air valve and continuous ventilation). At the end of incubation, one day after inoculation, the bacterial growth was quantitated fluorometrically. Therefore resazurin (0.6 mg/ml) was added in a volume of 20 μl to all wells […], and the plates were re-incubated overnight. A change in colour from blue to pink indicated the growth of bacteria.
(§4) The fluorescence was read in a computer-controlled fluorometer (Cytofluor Biosearch) at an excitation wavelength of 530 nm and an emission wavelength of 590 nm. The % growth inhibition achieved by the compounds was calculated according to standard methods. The IC90 (expressed in μg/ml) was defined as the 90% inhibitory concentration for bacterial growth.

[2] = system: Streptococcus pyogens (ATCC8668); settings: 90% inhibitory concentration for bacterial growth, 37° C., resazurin fluorescence, read-out: IC90 (μg/ml) SPY 8668
Protocol: as §1, §2, §3, §4

[3] = system: Streptococcus pneumoniae (ATCC6305); settings: 90% inhibitory concentration for bacterial growth, 37° C., resazurin fluorescence, read-out: IC90 (μg/ml) SPN 6305
Protocol: as §1, §2, §3, §4

[4] = system: Pseudomonas aeruginosa (ATCC27853); settings: 90% inhibitory concentration for bacterial growth, 37° C., resazurin fluorescence, read-out: IC90 (μg/ml) PAE 27853
Protocol: as §1, §2, §3, §4

[5] = system: Staphylococcus aureus (ATCC29213); settings: 90% inhibitory concentration for bacterial growth, 37° C., resazurin fluorescence, read-out: IC90 (μg/ml) STA 29213
Protocol: as §1, §2, §3, §4

[6] = system: Bacillus subtilis (ATCC43639); settings: 90% inhibitory concentration for bacterial growth, 37° C., resazurin fluorescence, read-out: IC90 (μg/ml) BSU 43639
Protocol: as §1, §2, §3, §4

[7] = system: Listeria monocytogenes (ATCC49594); settings: 90% inhibitory concentration for bacterial growth, 37° C., resazurin fluorescence, read-out: IC90 (μg/ml) LMO 49594
Protocol: as §1, §2, §3, §4

[8] = system: methicilline resistant Staphylococcus aureus (MRSA) (a clinical isolate from the University of Antwerp); settings: 90% inhibitory concentration for bacterial growth, 37° C., resazurin fluorescence, read-out: IC90 (μg/ml) STA RMETHIC
Protocol: as §1, §2, §3, §4

[9] = system: Staphylococcus aureus (ATCC25923); settings: 90% inhibitory concentration for bacterial growth, 37° C., resazurin fluorescence, read-out: IC90 (μg/ml) STA 25923
Protocol: as §1, §2, §3, §4

[10] = system: Streptococcus mutans (ATCC33402); settings: 90% inhibitory concentration for bacterial growth, 37° C., resazurin fluorescence, read-out: IC90 (μg/ml) SMU 33402
Protocol: as §1, §2, §3, §4

[11] = system: Enterococcus faecalis (ATCC14506); settings: 90% inhibitory concentration for bacterial growth, 37° C., resazurin fluorescence, read-out: IC90 (μg/ml) EFA 14506
Protocol: as §1, §2, §3, §4

| IC90 [1] | IC90 [2] | IC90 [3] | IC90 [4] | IC90 [5] | IC90 [6] | IC90 [7] | IC90 [9] | IC90 [10] | IC90 [11] | Structure (SMILES) | IC90 [8] |
| --- | --- | --- | --- | --- | --- | --- | --- | --- | --- | --- | --- |
| 11.5 µg/mL (≈ 25 µM) | 11.5 µg/mL (≈ 25 µM) | 11.5 µg/mL (≈ 25 µM) | 11.5 µg/mL (≈ 25 µM) | 11.5 µg/mL (≈ 25 µM) | – | – | – | – | – | CN(C)CCC(O)(c1ccccc1)c1ccc2nc(-c3cccnc3)cc(-c3ccccc3)c2c1 (stereo not shown) [Compound 43] | – |
| 11.3 µg/mL (≈ 25.1 µM) | 11.3 µg/mL (≈ 25.1 µM) | 11.3 µg/mL (≈ 25.1 µM) | 11.3 µg/mL (≈ 25.1 µM) | 11.3 µg/mL (≈ 25.1 µM) | 11.3 µg/mL (≈ 25.1 µM) | 11.3 µg/mL (≈ 25.1 µM) | 11.3 µg/mL (≈ 25.1 µM) | – | – | CN(C)CCC(O)(c1ccc2nc(-c3cccnc3)cc(-c3ccccc3)c2c1)c1ccco1 (stereo not shown) [Compound 44] | 11.3 µg/mL (≈ 25.1 µM) |
| 11.6 µg/mL (≈ 25.1 µM) | 9.2 µg/mL (≈ 19.9 µM) | 11.6 µg/mL (≈ 25.1 µM) | 11.6 µg/mL (≈ 25.1 µM) | 9.2 µg/mL (≈ 19.9 µM) | 9.2 µg/mL (≈ 19.9 µM) | 11.6 µg/mL (≈ 25.1 µM) | 10.3 µg/mL (≈ 22.3 µM) | 9.2 µg/mL (≈ 19.9 µM) | 10.3 µg/mL (≈ 22.3 µM) | CN(C)CCC(O)(c1cc(F)cc(F)c1)c1cccc2nc(N(C)C)c(-c3ccccc3)cc12 (stereo not shown) [Compound 45] | 46.2 µg/mL (≈ 100 µM) |
| 13.5 µg/mL (≈ 25.2 µM) | 13.5 µg/mL (≈ 25.2 µM) | 13.5 µg/mL (≈ 25.2 µM) | 13.5 µg/mL (≈ 25.2 µM) | 13.5 µg/mL (≈ 25.2 µM) | 13.5 µg/mL (≈ 25.2 µM) | 13.5 µg/mL (≈ 25.2 µM) | 13.5 µg/mL (≈ 25.2 µM) | 13.5 µg/mL (≈ 25.2 µM) | – | CN(C)CCC(O)(c1ccccc1)c1cc(-c2cccnc2)cc2cc(-c3ccccc3)c(-c3cccnc3)nc12 (stereo not shown) [Compound 65] | 13.5 µg/mL (≈ 25.2 µM) |
| 17 µg/mL (≈ 25.1 µM) | 17 µg/mL (≈ 25.1 µM) | 17 µg/mL (≈ 25.1 µM) | 17 µg/mL (≈ 25.1 µM) | 17 µg/mL (≈ 25.1 µM) | – | – | – | 17 µg/mL (≈ 25.1 µM) | – | CC(=O)c1ccc(N2CCN(c3nc4c(C(O)(CCN(C)C)c5ccccc5)cc(Br)cc4cc3Cc3ccccc3)CC2)cc1 (stereo not shown) [Compound 54] | – |
| 10.7 µg/mL (≈ 25.1 µM) | 10.7 µg/mL (≈ 25.1 µM) | 10.7 µg/mL (≈ 25.1 µM) | 10.7 µg/mL (≈ 25.1 µM) | 10.7 µg/mL (≈ 25.1 µM) | 10.7 µg/mL (≈ 25.1 µM) | 10.7 µg/mL (≈ 25.1 µM) | 10.7 µg/mL (≈ 25.1 µM) | – | – | CN(C)CCC(O)(c1ccccc1)c1ccc2nc(N(C)C)cc(-c3ccccc3)c2c1 (stereo not shown) [Compound 47] | 10.7 µg/mL (≈ 25.1 µM) |
| 10.1 µg/mL (≈ 25.1 µM) | 10.1 µg/mL (≈ 25.1 µM) | 10.1 µg/mL (≈ 25.1 µM) | 10.1 µg/mL (≈ 25.1 µM) | 10.1 µg/mL (≈ 25.1 µM) | 10.1 µg/mL (≈ 25.1 µM) | 10.1 µg/mL (≈ 25.1 µM) | 10.1 µg/mL (≈ 25.1 µM) | – | – | COc1nc2cccc(C(O)(CCN(C)C)c3ccco3)c2cc1-c1ccccc1 (stereo not shown) [Compound 5] | 9 µg/mL (≈ 22.4 µM) |
| 14.9 µg/mL (≈ 25.2 µM) | 11.8 µg/mL (≈ 19.9 µM) | 14.9 µg/mL (≈ 25.2 µM) | 14.9 µg/mL (≈ 25.2 µM) | 11.8 µg/mL (≈ 19.9 µM) | 11.8 µg/mL (≈ 19.9 µM) | 14.9 µg/mL (≈ 25.2 µM) | 13.2 µg/mL (≈ 22.3 µM) | 11.8 µg/mL (≈ 19.9 µM) | 11.8 µg/mL (≈ 19.9 µM) | CN(C)CCC(O)(c1cccc2ccccc12)c1cc(Br)cc2cc(Cc3ccccc3)c(-n3ccnc3)nc12 (stereo not shown) [Compound 24] | 14.9 µg/mL (≈ 25.2 µM) |
| 10.7 µg/mL (≈ 22.5 µM) | 12 µg/mL (≈ 25.2 µM) | 12 µg/mL (≈ 25.2 µM) | 10.7 µg/mL (≈ 22.5 µM) | 9.5 µg/mL (≈ 19.9 µM) | 37.9 µg/mL (≈ 79.5 µM) | 7.6 µg/mL (≈ 15.9 µM) | 7.6 µg/mL (≈ 15.9 µM) | – | – | COc1nc2ccc(C(O)(CCN(C)C)c3cc(F)cc(F)c3)cc2cc1Cc1ccc(C)cc1 (stereo not shown) [Compound 7] | 37.9 µg/mL (≈ 79.5 µM) |
| 12.1 µg/mL (≈ 25.1 µM) | 12.1 µg/mL (≈ 25.1 µM) | 10.8 µg/mL (≈ 22.4 µM) | 12.1 µg/mL (≈ 25.1 µM) | 12.1 µg/mL (≈ 25.1 µM) | 12.1 µg/mL (≈ 25.1 µM) | 12.1 µg/mL (≈ 25.1 µM) | 12.1 µg/mL (≈ 25.1 µM) | – | – | COc1nc2c(C(O)(CCN(C)C)c3ccco3)cc(Br)cc2cc1-c1ccccc1 (stereo not shown) [Compound 13] | 12.1 µg/mL (≈ 25.1 µM) |
